Test results: PubChem BioAssay (NCI)
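Results reflect a 48-hour exposure of cells in 96-well plates to compound at five concentrations. At the TGI there is no net growth.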

How the values were obtained:
Assay in all cases: NCI anticancer screen, dose series, 48 h
786-0 renal = system: 786-0 renal
A498 renal = system: A498 renal
A549 NSCLC = system: A549 NSCLC
ACHN renal = system: ACHN renal
BT-549 breast = system: BT-549 breast
CAKI-1 renal = system: CAKI-1 renal
CCRF-CEM leukemia = system: CCRF-CEM leukemia
COLO 205 colon = system: COLO 205 colon
DU-145 prostate = system: DU-145 prostate
EKVX NSCLC = system: EKVX NSCLC
HCC-2998 colon = system: HCC-2998 colon
HCT-116 colon = system: HCT-116 colon
HCT-15 colon = system: HCT-15 colon
HL-60(TB) leukemia = system: HL-60(TB) leukemia
HS 578T breast = system: HS 578T breast
HT29 colon = system: HT29 colon
IGROV1 ovarian = system: IGROV1 ovarian
K-562 leukemia = system: K-562 leukemia
KM12 colon = system: KM12 colon
LOX IMVI melanoma = system: LOX IMVI melanoma
M14 melanoma = system: M14 melanoma
MALME-3M melanoma = system: MALME-3M melanoma
MCF7 breast = system: MCF7 breast
MDA-MB-231 breast = system: MDA-MB-231 breast
MDA-MB-435 = system: MDA-MB-435
MDA-N = system: MDA-N
MOLT-4 leukemia = system: MOLT-4 leukemia
NCI-H226 lung = system: NCI-H226 lung
NCI-H23 lung = system: NCI-H23 lung
NCI-H460 lung = system: NCI-H460 lung
NCI-H522 lung = system: NCI-H522 lung
NCI/ADR-RES ovarian = system: NCI/ADR-RES ovarian
OVCAR-3 ovarian = system: OVCAR-3 ovarian
OVCAR-4 ovarian = system: OVCAR-4 ovarian
OVCAR-5 ovarian = system: OVCAR-5 ovarian
OVCAR-8 ovarian = system: OVCAR-8 ovarian
PC-3 prostate = system: PC-3 prostate
RPMI-8226 leukemia = system: RPMI-8226 leukemia
SF-268 CNS = system: SF-268 CNS
SF-295 CNS = system: SF-295 CNS
SF-539 CNS = system: SF-539 CNS
SK-MEL-2 melanoma = system: SK-MEL-2 melanoma
SK-MEL-28 melanoma = system: SK-MEL-28 melanoma
SK-MEL-5 melanoma = system: SK-MEL-5 melanoma
SK-OV-3 ovarian = system: SK-OV-3 ovarian
SN12C renal = system: SN12C renal
SNB-19 CNS = system: SNB-19 CNS
SNB-75 CNS = system: SNB-75 CNS
SW-620 colon = system: SW-620 colon
T-47D breast = system: T-47D breast
TK-10 renal = system: TK-10 renal
U251 CNS = system: U251 CNS
UACC-257 melanoma = system: UACC-257 melanoma
UACC-62 melanoma = system: UACC-62 melanoma
UO-31 renal = system: UO-31 renal
HOP-62 NSCLC = system: HOP-62 NSCLC
HOP-92 NSCLC = system: HOP-92 NSCLC
RXF 393 renal = system: RXF 393 renal

`CC1=CCCC(C)(O)C2CC(CCC3(C)OC3CC1)C(C)C(=O)O2` (stereo unspecified) showed a TGI (786-0 renal) greater than 100 µM, a TGI (A498 renal) greater than 100 µM and a TGI (A549 NSCLC) greater than 100 µM. It also gave a TGI (ACHN renal) greater than 100 µM, a TGI (BT-549 breast) greater than 100 µM and a TGI (CAKI-1 renal) greater than 100 µM. It also gave a TGI (CCRF-CEM leukemia) greater than 100 µM, a TGI (COLO 205 colon) greater than 100 µM and a TGI (DU-145 prostate) greater than 100 µM. The TGI (EKVX NSCLC) was greater than 100 µM, the TGI (HCC-2998 colon) was greater than 100 µM and the TGI (HCT-116 colon) was greater than 100 µM. For the same molecule, the TGI (HCT-15 colon) was greater than 100 µM, the TGI (HL-60(TB) leukemia) was greater than 100 µM and the TGI (HS 578T breast) was greater than 100 µM. For the same molecule, the TGI (HT29 colon) was greater than 100 µM, the TGI (IGROV1 ovarian) was greater than 100 µM and the TGI (K-562 leukemia) was greater than 100 µM. For the same molecule, the TGI (KM12 colon) was greater than 100 µM, the TGI (LOX IMVI melanoma) was greater than 100 µM and the TGI (M14 melanoma) was greater than 100 µM. For the same molecule, the TGI (MALME-3M melanoma) was greater than 100 µM, the TGI (MCF7 breast) was greater than 100 µM and the TGI (MDA-MB-231 breast) was greater than 100 µM. For the same molecule, the TGI (MDA-MB-435) was greater than 100 µM, the TGI (MDA-N) was greater than 100 µM and the TGI (MOLT-4 leukemia) was greater than 100 µM. The TGI (NCI-H226 lung) was greater than 100 µM, the TGI (NCI-H23 lung) was greater than 100 µM and the TGI (NCI-H460 lung) was greater than 100 µM. The TGI (NCI-H522 lung) was greater than 100 µM, the TGI (NCI/ADR-RES ovarian) was greater than 100 µM and the TGI (OVCAR-3 ovarian) was greater than 100 µM. For the same molecule, the TGI (OVCAR-4 ovarian) was greater than 100 µM, the TGI (OVCAR-5 ovarian) was greater than 100 µM and the TGI (OVCAR-8 ovarian) was greater than 100 µM. It also gave a TGI (PC-3 prostate) greater than 100 µM, a TGI (RPMI-8226 leukemia) greater than 100 µM and a TGI (SF-268 CNS) greater than 100 µM. The TGI (SF-295 CNS) was greater than 100 µM, the TGI (SF-539 CNS) was greater than 100 µM and the TGI (SK-MEL-2 melanoma) was greater than 100 µM. For the same molecule, the TGI (SK-MEL-28 melanoma) was greater than 100 µM, the TGI (SK-MEL-5 melanoma) was greater than 100 µM and the TGI (SK-OV-3 ovarian) was greater than 100 µM. For the same molecule, the TGI (SN12C renal) was greater than 100 µM, the TGI (SNB-19 CNS) was greater than 100 µM and the TGI (SNB-75 CNS) was greater than 100 µM. It also gave a TGI (SW-620 colon) greater than 100 µM, a TGI (T-47D breast) greater than 100 µM and a TGI (TK-10 renal) greater than 100 µM. For the same molecule, the TGI (U251 CNS) was greater than 100 µM, the TGI (UACC-257 melanoma) was greater than 100 µM and the TGI (UACC-62 melanoma) was greater than 100 µM. It also gave a TGI (UO-31 renal) greater than 100 µM.
Work on `Clc1ccc(Nc2nn3c(CCCCCCCCc4nnc5sc(Nc6ccc(Cl)cc6)nn45)nnc3s2)cc1` yielded a TGI (786-0 renal) greater than 100 µM, a TGI (A498 renal) greater than 100 µM and a TGI (A549 NSCLC) greater than 100 µM. For the same molecule, the TGI (ACHN renal) was greater than 100 µM, the TGI (BT-549 breast) was greater than 100 µM and the TGI (CAKI-1 renal) was greater than 100 µM. It also gave a TGI (CCRF-CEM leukemia) greater than 100 µM, a TGI (COLO 205 colon) greater than 100 µM and a TGI (DU-145 prostate) greater than 100 µM. For the same molecule, the TGI (EKVX NSCLC) was greater than 100 µM, the TGI (HCC-2998 colon) was greater than 100 µM and the TGI (HCT-116 colon) was greater than 100 µM. For the same molecule, the TGI (HCT-15 colon) was greater than 100 µM, the TGI (HOP-62 NSCLC) was greater than 100 µM and the TGI (HOP-92 NSCLC) was greater than 100 µM. The TGI (HS 578T breast) was greater than 100 µM, the TGI (HT29 colon) was greater than 100 µM and the TGI (K-562 leukemia) was greater than 100 µM. It also gave a TGI (KM12 colon) greater than 100 µM, a TGI (LOX IMVI melanoma) greater than 100 µM and a TGI (M14 melanoma) greater than 100 µM. For the same molecule, the TGI (MALME-3M melanoma) was greater than 100 µM, the TGI (MCF7 breast) was greater than 100 µM and the TGI (MDA-MB-231 breast) was greater than 100 µM. For the same molecule, the TGI (MDA-MB-435) was greater than 100 µM, the TGI (MDA-N) was greater than 100 µM and the TGI (MOLT-4 leukemia) was greater than 100 µM. For the same molecule, the TGI (NCI-H226 lung) was greater than 100 µM, the TGI (NCI-H23 lung) was greater than 100 µM and the TGI (NCI-H460 lung) was greater than 100 µM. For the same molecule, the TGI (NCI-H522 lung) was greater than 100 µM, the TGI (NCI/ADR-RES ovarian) was greater than 100 µM and the TGI (OVCAR-3 ovarian) was greater than 100 µM. It also gave a TGI (OVCAR-4 ovarian) greater than 100 µM, a TGI (OVCAR-5 ovarian) greater than 100 µM and a TGI (OVCAR-8 ovarian) greater than 100 µM. It also gave a TGI (PC-3 prostate) greater than 100 µM, a TGI (RPMI-8226 leukemia) greater than 100 µM and a TGI (RXF 393 renal) greater than 100 µM. It also gave a TGI (SF-268 CNS) greater than 100 µM, a TGI (SF-295 CNS) greater than 100 µM and a TGI (SF-539 CNS) greater than 100 µM. The TGI (SK-MEL-2 melanoma) was greater than 100 µM, the TGI (SK-MEL-28 melanoma) was greater than 100 µM and the TGI (SK-MEL-5 melanoma) was greater than 100 µM. It also gave a TGI (SK-OV-3 ovarian) greater than 100 µM, a TGI (SN12C renal) greater than 100 µM and a TGI (SNB-19 CNS) of 80.4 µM. For the same molecule, the TGI (SNB-75 CNS) was 62.6 µM, the TGI (SW-620 colon) was greater than 100 µM and the TGI (T-47D breast) was greater than 100 µM. The TGI (TK-10 renal) was 96.8 µM, the TGI (U251 CNS) was greater than 100 µM and the TGI (UACC-257 melanoma) was greater than 100 µM. It also gave a TGI (UACC-62 melanoma) greater than 100 µM and a TGI (UO-31 renal) greater than 100 µM.
